The source of these data is patent publication US20260055108A1, “TRIAZINE COMPOUNDS AND USES THEREOF” (HUTCHMED LIMITED, priority 2022, published 2026).

As a reminder, the GI50 is the concentration at which growth is held to half of that of the control. Usually IC50 stands for the concentration at which inhibition is half-maximal.

Test [1] relates to MV-4-11 cells (human acute myelogenous leukemia cell line carrying MLL-AF4 mutation). Kind of test: Cell proliferation assay, MV-4-11 (CellTiter-Glo). In kind it is cell-based. To be noted: Homo sapiens, MV4-11, 72 h. In a few lines:
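MV-4-11 cells (3000/well, IMDM with 10% HIFBS and 50 μM β-mercaptoethanol) exposed to compound at 1.100–0.001 μM final, 0.1% DMSO, for 3 days at 37°C. Viability read by CellTiter-Glo luminescence on day 0 and day 3, normalised to day-0 and untreated wells.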
(In general: ATP-based viability assays read luminescence as a measure of living cells.)

In test [2] the target is Recombinant human Menin protein (2-610) / MLL polypeptide binding (Homo sapiens (Human), UniProt O00255). Kind of test: Menin and MLL protein binding at a molecular level (fluorescence polarization method). To be noted: inhibition of Menin / MLL polypeptide binding. In a few lines: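 Binding of recombinant human Menin (2-610) to 6-FAM-labelled MLL peptide measured by fluorescence polarization (ex 480/em 535 nm) in Tris/NaCl/TCEP buffer, pH 7.5, 2% DMSO. Compound preincubated with Menin 30 min at room temperature, then peptide added for 30 min in the dark. Tested at 1.000 down to 0.0005 μM final.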
Recombinant human Menin protein (2-610) / MLL polypeptide binding, sequence (O00255 2-610): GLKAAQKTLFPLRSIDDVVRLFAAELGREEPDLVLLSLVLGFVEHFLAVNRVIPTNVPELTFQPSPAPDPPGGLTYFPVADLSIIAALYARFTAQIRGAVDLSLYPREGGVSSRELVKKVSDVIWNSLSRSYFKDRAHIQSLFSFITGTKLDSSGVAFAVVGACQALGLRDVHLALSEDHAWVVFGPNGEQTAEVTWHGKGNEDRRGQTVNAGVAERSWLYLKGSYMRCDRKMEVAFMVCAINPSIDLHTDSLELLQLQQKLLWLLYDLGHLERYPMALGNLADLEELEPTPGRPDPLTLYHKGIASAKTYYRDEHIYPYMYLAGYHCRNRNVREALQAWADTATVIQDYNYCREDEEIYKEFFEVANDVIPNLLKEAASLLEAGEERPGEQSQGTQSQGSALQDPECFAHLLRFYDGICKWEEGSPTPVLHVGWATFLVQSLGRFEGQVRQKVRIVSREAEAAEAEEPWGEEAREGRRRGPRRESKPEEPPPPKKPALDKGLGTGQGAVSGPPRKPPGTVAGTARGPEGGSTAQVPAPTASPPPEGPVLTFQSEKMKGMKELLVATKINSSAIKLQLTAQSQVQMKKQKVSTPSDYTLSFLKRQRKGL
On the technique in general: Fluorescence polarisation rises when a labelled molecule tumbles more slowly, as on binding a larger partner.

Where [3] appears, read: MV-4-11 cells, 3 days treatment, CellTiter-Glo, read-out: GI50.

Structures can show the parent of a compound that is named as a salt. Where two headings read alike, the source gives them in different places.

Consider `CCN(C(=O)c1cc(F)ccc1Oc1nncnc1N1CC(C2(N(C)Cc3cc(C(N)=O)n(C)n3)CC2)C1)C(C)C` [Compound 145, 3-(((1-(1-(6-(2-(ethyl(isopropyl)carbamoyl)-4-fluorophenoxy)-1,2,4-triazin-5-yl)azetidin-3-yl)cyclopropyl)(methyl)amino)methyl)-1-methyl-1H-pyrazole-5-carboxamide], for which, in test [1] (setting [3]), the GI50 is above 3300 nM. Also, the IC50 in test [2] is above 1000 nM.
As for `CCN(C(=O)c1cc(F)ccc1Oc1nncnc1N1CC(C2(N(C)Cc3cc(C#N)n(C)n3)CC2)C1)C(C)C` [Compound 146, 2-((5-(3-(1-(((5-cyano-1-methyl-1H-pyrazol-3-yl)methyl)(methyl)amino)cyclopropyl)azetidin-1-yl)-1,2,4-triazin-6-yl)oxy)-N-ethyl-5-fluoro-N-isopropylbenzamide], in test [1] (setting [3]), the GI50 stood at 986 nM. For the same compound, the half-maximal inhibitory concentration (IC50) in test [2] is above 1000 nM.
`CCN(C(=O)c1cc(F)ccc1Oc1nncnc1N1CC2(CCN(CC3CCN(CC(O)C(N)=O)CC3)CC2)C1)C(C)C` (stereo not shown) [Compound 147, 2-((5-(7-((1-(3-amino-2-hydroxy-3-oxopropyl)piperidin-4-yl)methyl)-2,7-diazaspiro[3.5]nonan-2-yl)-1,2,4-triazin-6-yl)oxy)-N-ethyl-5-fluoro-N-isopropylbenzamide]: the GI50 in test [1] (setting [3]) is 1390 nM. Further, the IC50 in test [2] was found to be 116 nM.
On the same counts, the results for `CCN(C(=O)c1cc(F)ccc1Oc1nncnc1N1CC2(CCN(Cc3ccc4c(cc(C#N)n4CC(O)C(N)=O)c3C)CC2)C1)C(C)C` (stereo not shown) [Compound 148] are 221 nM and 5.3 nM.
`CCN(C(=O)c1cc(F)ccc1Oc1nncnc1N1CC2(CCN(CC3CCN(c4ccc(C(N)=O)cn4)CC3)CC2)C1)C(C)C` [Compound 149, 6-(4-((2-(6-(2-(ethyl(isopropyl)carbamoyl)-4-fluorophenoxy)-1,2,4-triazin-5-yl)-2,7-diazaspiro[3.5]nonan-7-yl)methyl)piperidin-1-yl)nicotinamide formate] yielded a 50% growth inhibitory concentration (GI50) in test [1] of 6 nM. Further, the IC50 in test [2] was determined as 2.9 nM.
Regarding `CCN(C(=O)c1cc(F)ccc1Oc1nncnc1N1CC2(CCN(CC3CCN(c4ccncc4C(N)=O)CC3)CC2)C1)C(C)C` [Compound 150, 4-(4-((2-(6-(2-(ethyl(isopropyl)carbamoyl)-4-fluorophenoxy)-1,2,4-triazin-5-yl)-2,7-diazaspiro[3.5]nonan-7-yl)methyl)piperidin-1-yl)nicotinamide], in test [1] (setting [3]), the GI50 turned out to be 66 nM. Further, in test [2], the IC50 came to 41.5 nM.
The corresponding values for `CCN(C(=O)c1cc(F)ccc1Oc1nncnc1N1CC2(CCN(CC3CCN(c4ccnc(C(N)=O)c4)CC3)CC2)C1)C(C)C` [Compound 151] are 3 nM and 1.5 nM.
The corresponding values for `CCN(C(=O)c1cc(F)ccc1Oc1nncnc1N1CC2(CCN(Cc3ccc4c(cc(C(=O)NC)n4CCO)c3C)CC2)C1)C(C)C` [Compound 152, 5-((2-(6-(2-(ethyl(isopropyl)carbamoyl)-4-fluorophenoxy)-1,2,4-triazin-5-yl)-2,7-diazaspiro[3.5]nonan-7-yl)methyl)-1-(2-hydroxyethyl)-N,4-dimethyl-1H-indole-2-carboxamide] are 369 nM and 357 nM.
On the same counts, the results for `CCN(C(=O)c1cc(F)ccc1Oc1nncnc1N1CC(C2(N(C)Cc3ccc4c(cc(C#N)n4CCO)c3C)CC2)C1)C(C)C` [Compound 153] are 18 nM and 5.2 nM.
Consider `CCN(C(=O)c1cc(F)ccc1Oc1nncnc1N1CC2(CCN(Cc3ccc4c(cc(C#N)n4CCO)c3C)CC2)C1)C(C)C` [Compound 154], for which, in test [1] (setting [3]), the GI50 amounted to 2 nM. For the same compound, the IC50 in test [2] turned out to be 0.8 nM.
The corresponding values for `Cc1c(CN2CCC3(CC2)CN(c2ncnnc2Oc2ccc(F)cc2)C3)ccc2c1cc(C#N)n2CCO` [Compound 155] are 276 nM and 292 nM.
On to `CCN(C(=O)c1cc(F)ccc1Oc1nnc(NC)nc1N1CC2(CCN(Cc3ccc4c(cc(C#N)n4CCO)c3C)CC2)C1)C(C)C` [Compound 156], for which the GI50 in test [1] (setting [3]) was found to be 48 nM. Also, the concentration for half-maximal inhibition (IC50) in test [2] amounted to 43.7 nM.
With `COc1cc(F)ccc1Oc1nncnc1N1CC2(CCN(Cc3ccc4c(cc(C#N)n4CCO)c3C)CC2)C1` [Compound 157], the GI50 in test [1] (setting [3]) stood at 252 nM. In addition, in test [2], the IC50 stood at 305 nM.
For the compound `CCN(C(=O)c1cc(F)ccc1Oc1nncnc1N1CC2(CCN(Cc3ccc4c(cc(C(N)=O)n4CCO)c3C)CC2)C1)C(C)C` [Compound 158], the 50% growth inhibitory concentration (GI50) in test [1] (setting [3]) worked out at 131 nM. In addition, the IC50 in test [2] came to 212 nM.
With `CCN(C(=O)c1cc(F)ccc1Oc1nncnc1N1CC2(CCN(Cc3ccc4c(cc(C(=O)O)n4CCO)c3C)CC2)C1)C(C)C` [Compound 159], in test [1] (setting [3]), the concentration for 50% growth inhibition (GI50) stood at 642 nM. In test [2], the IC50 is 450 nM.
With `CCN(C(=O)c1cc(F)ccc1Oc1nnc(C)nc1N1CC2(CCN(Cc3ccc4c(cc(C#N)n4CCO)c3C)CC2)C1)C(C)C` [Compound 160], the 50% growth inhibitory concentration (GI50) in test [1] (setting [3]) was 54 nM. Besides, in test [2], the IC50 came out at 87.7 nM.
On the same counts, the results for `Cc1nc(-c2cc(F)ccc2Oc2nncnc2N2CC3(CCN(Cc4ccc5c(cc(C#N)n5CCO)c4C)CC3)C2)n(C(C)C)n1` [Compound 161] are 22 nM and 18.7 nM.
`CCN(C(=O)c1cc(F)ccc1Oc1nncnc1N1CC2(CCN(Cc3ccc4c(c3)cc(C#N)n4CCO)CC2)C1)C(C)C` [Compound 162]: the 50% growth inhibitory concentration (GI50) in test [1] (setting [3]) was determined as 30 nM. Moreover, the IC50 in test [2] was 13.9 nM.
On the same counts, the results for `CCN(C(=O)c1cc(F)ccc1Oc1nncnc1N1CC(C2(N(CCO)Cc3ccc4[nH]c(C#N)cc4c3C)CC2)C1)C(C)C` [Compound 163] are 49 nM and 4.9 nM.
Take `CCN(C(=O)c1cc(F)ccc1Oc1nncnc1N1CC2(CCN(CC3CCN(c4cccc(N)n4)CC3)CC2)C1)C(C)C` [Compound 164, 2-((5-(7-((1-(6-aminopyridin-2-yl)piperidin-4-yl)methyl)-2,7-diazaspiro[3.5]nonan-2-yl)-1,2,4-triazin-6-yl)oxy)-N-ethyl-5-fluoro-N-isopropylbenzamide]: in test [1] (setting [3]), the GI50 is 27 nM. Moreover, the IC50 in test [2] was determined as 4.6 nM.
`CCN(C(=O)c1cc(F)ccc1Oc1nncnc1N1CC2(CCN(CC3CCN(c4ccncn4)CC3)CC2)C1)C(C)C` [Compound 165, N-ethyl-5-fluoro-N-isopropyl-2-((5-(7-((1-(pyrimidin-4-yl)piperidin-4-yl)methyl)-2,7-diazaspiro[3.5]nonan-2-yl)-1,2,4-triazin-6-yl)oxy)benzamide]: the concentration for 50% growth inhibition (GI50) in test [1] (setting [3]) is 13 nM. Moreover, the IC50 in test [2] is 5.3 nM.
On the same counts, the results for `CCN(C(=O)c1cc(F)ccc1Oc1nncnc1N1CC2(CCN(CC3CCN(c4cccnn4)CC3)CC2)C1)C(C)C` [Compound 166] are 7 nM and 2.6 nM.
Turning to `CCN(C(=O)c1cc(F)ccc1Oc1nncnc1N1CC2(CCN(CC3CCN(c4ccnnc4)CC3)CC2)C1)C(C)C` [Compound 167], in test [1] (setting [3]), the GI50 is 18 nM. In addition, the half-maximal inhibitory concentration (IC50) in test [2] came out at 14.9 nM.
On the same counts, the results for `CCN(C(=O)c1cc(F)ccc1Oc1nncnc1N1CC2(CCN(CC3CCN(c4cccc(=O)n4C)CC3)CC2)C1)C(C)C` [Compound 168] are 133 nM and above 200 nM.
For the compound `CCN(C(=O)c1cc(F)ccc1Oc1nncnc1N1CC2(CCN(CC3CCN(C(=O)c4cnn5cccnc45)CC3)CC2)C1)C(C)C` [Compound 169, N-ethyl-5-fluoro-N-isopropyl-2-((5-(7-((1-(pyrazolo[1,5-a]pyrimidine-3-carbonyl)piperidin-4-yl)methy)-2,7-diazaspiro[3.5]nonan-2-yl)-1,2,4-triazin-6-yl)oxy)benzamide], in test [1] (setting [3]), the GI50 came out at 108 nM. Besides, in test [2], the half-inhibitory concentration (IC50) came out at 166 nM.
Consider `CCN(C(=O)c1cc(F)ccc1Oc1nncnc1N1CC2(CCN(CC3CCN(C(=O)OC)CC3)CC2)C1)C(C)C` [Compound 170, methyl 4-((2-(6-(2-(ethyl(isopropyl)carbamoyl)-4-fluorophenoxy)-1,2,4-triazin-5-yl)-2,7-diazaspiro[3.5]nonan-7-yl)methyl)piperidine-1-carboxylate], for which, in test [1], the concentration for 50% growth inhibition (GI50) was determined as 49 nM. The IC50 in test [2] amounted to 34.4 nM.
In the case of `CCN(C(=O)c1cc(F)ccc1Oc1nncnc1N1CC2(CCN(C(C)C3CCN(c4cc(OC)c(OC)nn4)CC3)CC2)C1)C(C)C` (stereo not shown) [Compound 171, 2-((5-(7-(1-(1-(5,6-dimethoxypyridazin-3-yl)piperidin-4-yl)ethyl)-2,7-diazaspiro[3.5]nonan-2-yl)-1,2,4-triazin-6-yl)oxy)-N-ethyl-5-fluoro-N-isopropylbenzamide], in test [1] (setting [3]), the GI50 turned out to be 56 nM. Besides, in test [2], the IC50 is 41.3 nM.
The corresponding values for `CCN(C(=O)c1cc(F)ccc1Oc1nncnc1N1CC2(CCN(C(=O)C3CCN(c4ccccn4)CC3)CC2)C1)C(C)C` [Compound 172, N-ethyl-5-fluoro-N-isopropyl-2-((5-(7-(1-(pyridin-2-yl)piperidine-4-carbonyl)-2,7-diazaspiro[3.5]nonan-2-yl)-1,2,4-triazin-6-yl)oxy)benzamide] are 76 nM and above 200 nM.
Turning to `CCN(C(=O)c1cc(F)ccc1Oc1nncnc1N1CC2(CCC(CN3CCN(c4ccccn4)CC3)CC2)C1)C(C)C` [Compound 173, N-ethyl-5-fluoro-N-isopropyl-2-((5-(7-((4-(pyridin-2-yl)piperazin-1-yl)methyl)-2-azaspiro[3.5]nonan-2-yl)-1,2,4-triazin-6-yl)oxy)benzamide], in test [1], halving of growth (GI50) required 292 nM. Further, the IC50 in test [2] is 750 nM.
